Experimental findings from US6426339B1, “Formulations and methods for providing prolonged local anesthesia” (Children's Medical Center Corporation, priority 1996, dated 2002) are described below.

“Also recorded” adds a separate entry of the source.

Data set [1] relates to sciatic nerve. Nature of the data set: Motor block: additives in the injection fluid with bupivacaine microspheres (Table 2). In kind it is in vivo, rat. An excerpt: The rats were behaviorally tested for sensory and motor anesthesia in a quiet observation room. Testing was only performed in rats showing appropriate baseline hot plate latencies after at least-one week of testing. In all testing conditions, the experimenter recording the behavior was unaware of the side containing the local anesthetic. To assess motor anesthesia, a 4-point scale based on visual observation was devised: (1) normal appearance, (2) intact dorsiflexion of foot with an impaired ability to splay toes when elevated by the tail, (3) toes and foot remained plantar flexed with no splaying ability, and (4) loss of dorsiflexion, flexion of toes, and impairment of gait. For graphing clarity, partial motor anesthesia equals a score of 2 and dense motor anesthesia is a score of either 3 or 4.
(§1) At least five rats were used in each test.
(§2) Sensory blockade or anesthesia effect was examined using art-known techniques. In addition, motor tests were performed at each time point to examined each rat's ability to hop and to place weight on it's hind leg by art-known techniques. Each leg was tested three times, and the latency of the contralateral leg was tested to provide a control. The animals were handled and cared for according to institution, state, and federal regulations.

The subject of data set [2] is sciatic nerve. Nature of the data set: Sensory block: additives in the injection fluid with bupivacaine microspheres (Table 2). Particulars: for sensory blockade latency: with bupivacaine microspheres, FIG. 5A. Type of data set: in vivo, rat. The method, then: Sensory anesthesia was measured by the time required for each rat to withdraw its hind paw from a 56° C. plate (IITC Life Science Instruments, Model 35-D, Woodland Hills, Calif.). The rats were allowed to adjust to their surroundings in a quiet room for at least 30 minutes before testing. The rats were held with a cloth gently. wrapped above their waist to restrain the upper extremities and obstruct vision. The rats were positioned to stand with one hind paw on a hot plate and the other on a room temperature plate. With a computer data collection system to (Apple IIe with a footpad switch), latency to withdraw each hind paw to the hot plate was recorded by alternating paws and allowing at least fifteen seconds of recovery between each measurement. If no withdrawal occurred from the hot plate within 12 seconds, the trial was terminated to prevent injury and the termination time was recorded. Testing ended after five measurements per side, the high and low points were disregarded, and the mean of the remaining three points was calculated for each side. Animals were handled in accordance with institutional, state and federal guidelines.
as §1, §2

The conditions of data set [3]: 0.05% in the suspending medium.
Procedure: Male Sprague-Dawley Charles River Rats, weighing between 200 and 350 grams were used to test the ability of each additive to prolong blockade or anesthesia effect. 150 mg of bupivacaine per kg of rat and a known concentration of each of the additives were placed in 0.6 mls of injection vehicle (5 g/L medium molecular weight carboxymethylcellulose, 1 g/L Tween 80). If the additive was a solid, it was dissolved in ethanol and aliquots which varied in concentrations from 0.0220 mg/kg of rat, and added to the injection fluid. If the additive was in liquid form, it was added directly to the injection fluid. The microsphere/additive mixture was vortexed (Scientific Industries Vortex Genie®) at maximum speed for three minutes prior to injection. The injection was performed while the rats were under general anesthetic, by locating the greater trochanter and injecting slightly below and proximal to it. At least five rats were used in each test.
Data set [4] concerns sciatic nerve. Nature of the data set: Sciatic blockade by liquid bupivacaine and/or dexamethasone in solution (Table 1). Type of data set: in vivo, rat. The procedure:
as §1, §2

Data set [5] has as its system sciatic nerve. Nature of the data set: Restoration of waning sensory anesthesia by dexamethasone (hot plate latency). Type of data set: in vivo, rat. Particulars: 0.032 mg/kg injected at the original site 6 hours after bupivacaine microspheres.
Procedure: Sensory anesthesia was measured by the time required for each rat to withdraw its hind paw from a 56° C. plate (IITC Life Science Instruments, Model 35-D, Woodland Hills, Calif.). The rats were allowed to adjust to their surroundings in a quiet room for at least 30 minutes before testing. The rats were held with a cloth gently. wrapped above their waist to restrain the upper extremities and obstruct vision. The rats were positioned to stand with one hind paw on a hot plate and the other on a room temperature plate. With a computer data collection system to (Apple IIe with a footpad switch), latency to withdraw each hind paw to the hot plate was recorded by alternating paws and allowing at least fifteen seconds of recovery between each measurement. If no withdrawal occurred from the hot plate within 12 seconds, the trial was terminated to prevent injury and the termination time was recorded. Testing ended after five measurements per side, the high and low points were disregarded, and the mean of the remaining three points was calculated for each side. […]
Sensory latency was determined by the hot plate foot withdrawal method described above. […]
[6] abbreviates: additive 0.032 mg/Kg rat with bupivacaine microspheres.
Where [7] appears, read: additive 0.25 mg/Kg rat with bupivacaine microspheres.
The mark [8] stands for this setting: additive 0.8 mg/Kg rat with bupivacaine microspheres.
[9] abbreviates: additive 2.0 mg/Kg rat with bupivacaine microspheres.
Where [10] appears, read: in the suspending medium with bupivacaine microspheres.
Where [11] appears, read: additive 0.1 mg/Kg rat with bupivacaine microspheres.
Where [12] appears, read: additive 3.1 mg/Kg rat with bupivacaine microspheres.
Where [13] appears, read: additive 0.01 mg/Kg rat with bupivacaine microspheres.
[14] abbreviates: additive 0.125 mg/Kg rat with bupivacaine microspheres.
[15] abbreviates: additive 1.25 mg/Kg rat with bupivacaine microspheres.
[16] abbreviates: additive 10 mg/Kg rat with bupivacaine microspheres.
[17] abbreviates: additive 6.3 mg/Kg rat with bupivacaine microspheres.
Setting [18] is: additive 2.1 mg/Kg rat with bupivacaine microspheres.
[19] abbreviates: additive 20 mg/Kg rat with bupivacaine microspheres.
Where [20] appears, read: additive 1.0 mg/Kg rat with bupivacaine microspheres.
The mark [21] stands for this setting: additive 1.7 mg/Kg rat with bupivacaine microspheres.
[22] abbreviates: additive 0.02 mg/Kg rat with bupivacaine microspheres.
Setting [23] is: additive 0.14 mg/Kg rat with bupivacaine microspheres.

As for `C[C@H]1C[C@H]2[C@@H]3CCC4=CC(=O)C=C[C@]4(C)[C@@]3(F)[C@@H](O)C[C@]2(C)[C@@]1(O)C(=O)CO` [Betamethasone, betamethasone], the Motor block stood at 15.0 ± 4.0 h in the data set with sciatic nerve [1] (setting [6]), 38.0 ± 11.0 h with sciatic nerve [1] (setting [7]), 39.0 ± 5.0 h in the data set with sciatic nerve [1] (setting [8]) and 39.0 ± 11.0 h in the data set with sciatic nerve [1] (setting [9]). The Sensory block is 19.0 ± 4.0 h with sciatic nerve [2] (setting [6]), 36.0 ± 10.0 h in the data set with sciatic nerve [2] (setting [7]), 46.0 ± 7.0 h in the data set with sciatic nerve [2] (setting [8]) and 44.0 ± 13.0 h in the data set with sciatic nerve [2] (setting [9]). Moreover, in the data set on sciatic nerve [2] (setting [10]), the “duration of prolonged blockade or local anesthesia effect” value is “up to 45 hours”.

Regarding `CC(C)CCC[C@@H](C)[C@H]1CC[C@H]2[C@@H]3CC=C4C[C@@H](O)CC[C@]4(C)[C@H]3CC[C@]12C` [Cholesterol], the Motor block in the data set on sciatic nerve [1] (setting [11]) is 4.0 ± 1.0 h; in the data set with sciatic nerve [1] (setting [12]), 5.0 ± 1.0 h. Further, in the data set on sciatic nerve [2] (0.3 mg/kg incorporated into bupivacaine loaded microspheres), the “prolongation of blockade compared with bupivacaine microspheres (in words)” value is given as “did not result in a prolongation of blockade or anesthesia effect”. Besides, the figures for the Sensory block in the data set with sciatic nerve [2] (setting [11]) and in the data set on sciatic nerve [2] (setting [12]) were 4.0 ± 0.4 h and 8.0 ± 3.0 h, respectively.

For `CNC[C@H](O)c1ccc(O)c(O)c1` [Epinephrine], the Motor block amounted to 12.0 ± 4.0 h in the data set with sciatic nerve [1] (setting [13]) and 11.0 ± 3.0 h in the data set on sciatic nerve [1] (setting [11]). The Sensory block in the data set with sciatic nerve [2] (setting [13]) was 12.0 ± 6.0 h; in the data set with sciatic nerve [2] (setting [11]) it was 14.0 ± 5.0 h. Also, in the data set with sciatic nerve [2] (setting [10]), the “degree of prolongation of blockade (in words)” value (shortened to “degree”) is “did not substantially prolong”. For the same molecule, the “systemic toxicity (in words)” value in data set [3] is listed as “considerable systemic toxicity, but no deaths”.

Consider `C[C@]12CC[C@@H]3c4ccc(O)cc4CC[C@H]3[C@@H]1CC[C@@H]2O` [Estradiol], for which the Motor block in the data set with sciatic nerve [1] (setting [14]) was 12.0 ± 6.0 h; in the data set with sciatic nerve [1] (setting [15]), 9.0 ± 2.0 h. The Sensory block was 11.0 ± 6.0 h in the data set with sciatic nerve [2] (setting [14]) and 8.0 ± 1.0 h in the data set on sciatic nerve [2] (setting [15]). Moreover, in the data set on sciatic nerve [2] (setting [10]), the “degree” value is listed as “no blockade-prolonging effect”.

Take `C[C@]12CCC(=O)C=C1CC[C@@H]1[C@@H]2[C@@H](O)C[C@@]2(C)[C@H]1CC[C@]2(O)C(=O)CO` [Hydrocortisone, hydrocortisone]: the Motor block came to 10.0 ± 3.0 h in the data set on sciatic nerve [1] (setting [11]), 16.0 ± 3.0 h in the data set on sciatic nerve [1] (setting [15]) and 31.0 ± 8.0 h in the data set with sciatic nerve [1] (setting [16]). Moreover, the Sensory block in the data set with sciatic nerve [2] (setting [11]) turned out to be 10.0 ± 3.0 h; in the data set on sciatic nerve [2] (setting [15]) it was 15.0 ± 5.0 h; in the data set with sciatic nerve [2] (setting [16]), 36.0 ± 10.0 h. In the data set with sciatic nerve [2] (setting [10]), the “degree” value is on record as “mild, but statistically significant prolongation; also recorded: cannot be made as effective as dexamethasone”.

Turning to `O=C(c1ccccc1)c1ccc2n1CCC2C(=O)O` (stereo not shown) [Ketoralac], the values for the Motor block in the data set on sciatic nerve [1] (setting [9]) and in the data set with sciatic nerve [1] (setting [17]) were 7.0 ± 0.4 h and 10.0 ± 4.0 h, respectively. The Sensory block stood at 6.0 ± 0.7 h in the data set on sciatic nerve [2] (setting [9]) and 8.0 ± 2.0 h with sciatic nerve [2] (setting [17]).

Take `C[C@H]1C[C@@H]2[C@H]([C@@H](O)C[C@@]3(C)[C@H]2CC[C@]3(O)C(=O)CO)[C@@]2(C)C=CC(=O)C=C12` [Methylprednisolone, methylprednisolone]: the Motor block in the data set on sciatic nerve [1] (setting [11]) came to 13.0 ± 4.0 h; in the data set with sciatic nerve [1] (setting [18]), 28.0 ± 5.0 h; in the data set with sciatic nerve [1] (setting [19]), 33.0 ± 9.0 h. For the same molecule, the figures for the Sensory block in the data set with sciatic nerve [2] (setting [11]), with sciatic nerve [2] (setting [18]) and with sciatic nerve [2] (setting [19]) were 20.0 ± 5.0 h, 28.0 ± 6.0 h and 34.0 ± 11.0 h, respectively.

`CC(=O)[C@H]1CC[C@H]2[C@@H]3CCC4=CC(=O)CC[C@]4(C)[C@H]3CC[C@]12C` [Progesterone] registered a Motor block with sciatic nerve [1] (setting [9]) of 6.0 ± 1.0 h. In the data set on sciatic nerve [2] (setting [9]), this molecule showed a Sensory block of 8.0 ± 1.0 h.

`C[C@]12CC[C@H]3[C@@H](CCC4=CC(=O)CC[C@@]43C)[C@@H]1CC[C@@H]2O` [Testosterone]: the results for the Motor block in the data set with sciatic nerve [1] (setting [20]) and with sciatic nerve [1] (setting [21]) were 6.0 ± 1.0 h and 15.0 ± 5.0 h, respectively. Besides, the values for the Sensory block in the data set on sciatic nerve [2] (setting [20]) and in the data set with sciatic nerve [2] (setting [21]) were 7.0 ± 2.0 h and 15.0 ± 5.0 h, respectively. Moreover, in the data set with sciatic nerve [2] (setting [10]), the “degree” value is on record as “mild prolongation”.

`CCCCN1CCCCC1C(=O)Nc1c(C)cccc1C` (stereo not shown) [bupivacaine]: the “LENGTH OF Blockade or anesthesia effect” value with sciatic nerve [4] (bupivacaine 3 mg/kg rat, no dexamethasone) fell in the range of 2 to 3 h. For the same molecule, the “effect on duration of blockade obtained using bupivacaine microspheres (in words)” value with sciatic nerve [2] (addition of 0.005% (w/w) to the suspending medium) is listed as “did not result in a prolongation”.

With `C[C@@H]1C[C@H]2[C@@H]3CCC4=CC(=O)C=C[C@]4(C)[C@@]3(F)[C@@H](O)C[C@]2(C)[C@@]1(O)C(=O)CO` [dexamethasone], the “LENGTH OF Blockade or anesthesia effect” value was 2 to 3 h in the data set with sciatic nerve [4] (bupivacaine 3 mg/kg rat plus dexamethasone 0.16 mg/kg rat); 2 to 3 h with sciatic nerve [4] (bupivacaine 3 mg/kg rat plus dexamethasone 1.6 mg/kg rat); 0 h in the data set on sciatic nerve [4] (dexamethasone 0.16 mg/kg rat, no bupivacaine). Further, in the data set with sciatic nerve [5], the “hot plate sensory latency after restoration” value is on record as “about 11 sec”. In addition, the Motor block in the data set on sciatic nerve [1] (setting [22]) worked out at 19.0 ± 8.0 h; in the data set on sciatic nerve [1] (setting [23]), 38.0 ± 5.0 h; in the data set with sciatic nerve [1] (setting [9]) it was 34.0 ± 12.0 h. Moreover, the values for the Sensory block in the data set on sciatic nerve [2] (setting [22]), with sciatic nerve [2] (setting [23]) and in the data set on sciatic nerve [2] (setting [9]) were 17.0 ± 11.0 h, 47.0 ± 8.0 h and 36.0 ± 19.0 h, respectively. Further, the sensory blockade latency entry in the data set with sciatic nerve [2] (after 50 hours) is “about 7 seconds”; in the data set with sciatic nerve [2] (after 100 hours), “about 2.5 seconds”; in the data set on sciatic nerve [2] (initial), 12 s.
